Assay results published in patent US10792283B2, “Quinoline analogs as phosphatidylinositol 3-kinase inhibitors” (HANGZHOU ZHENGXIANG PHARMACEUTICALS CO., LTD., priority 2016, dated 2020).
Like-named read-outs stand apart in the source and are kept apart here. One block for each molecule: values may come before it.

What was measured:
[1] = molecular target: PI3Kδ (Homo sapiens (Human), UniProt O00329); experiment: Enzymatic activity of PI3K isoforms, TR-FRET assay; type: biochemical; conditions: 10 μM ATP
PI3Kδ, sequence (O00329 whole entry, canonical isoform): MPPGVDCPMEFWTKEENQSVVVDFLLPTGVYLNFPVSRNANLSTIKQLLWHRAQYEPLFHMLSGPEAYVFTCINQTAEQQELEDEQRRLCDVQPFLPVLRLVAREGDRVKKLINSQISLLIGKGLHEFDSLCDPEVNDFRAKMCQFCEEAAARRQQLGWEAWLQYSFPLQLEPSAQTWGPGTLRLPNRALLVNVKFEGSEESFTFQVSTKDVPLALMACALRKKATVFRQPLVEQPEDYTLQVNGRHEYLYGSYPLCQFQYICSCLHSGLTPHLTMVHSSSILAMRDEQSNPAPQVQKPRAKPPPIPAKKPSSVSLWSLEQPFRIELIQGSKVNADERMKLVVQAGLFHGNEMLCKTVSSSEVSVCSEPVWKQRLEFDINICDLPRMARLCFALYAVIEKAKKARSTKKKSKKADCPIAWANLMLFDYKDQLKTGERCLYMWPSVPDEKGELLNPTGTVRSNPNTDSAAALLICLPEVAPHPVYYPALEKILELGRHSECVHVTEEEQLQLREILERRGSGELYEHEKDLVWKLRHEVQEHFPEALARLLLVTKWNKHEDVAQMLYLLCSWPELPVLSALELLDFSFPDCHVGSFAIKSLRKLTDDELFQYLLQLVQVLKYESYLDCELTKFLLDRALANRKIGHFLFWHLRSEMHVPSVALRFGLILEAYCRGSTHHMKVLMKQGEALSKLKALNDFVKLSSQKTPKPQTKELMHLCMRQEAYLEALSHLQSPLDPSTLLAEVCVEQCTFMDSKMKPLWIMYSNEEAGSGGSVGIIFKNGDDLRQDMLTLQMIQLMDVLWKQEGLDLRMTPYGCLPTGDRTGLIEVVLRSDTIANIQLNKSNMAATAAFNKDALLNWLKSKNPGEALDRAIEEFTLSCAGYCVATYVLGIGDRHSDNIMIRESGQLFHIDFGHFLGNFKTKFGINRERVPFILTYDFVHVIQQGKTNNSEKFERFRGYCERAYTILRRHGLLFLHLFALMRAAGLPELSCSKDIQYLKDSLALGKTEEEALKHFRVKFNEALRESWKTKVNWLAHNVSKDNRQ
PI3Kδ, sequence (P27986 whole entry partner, canonical isoform): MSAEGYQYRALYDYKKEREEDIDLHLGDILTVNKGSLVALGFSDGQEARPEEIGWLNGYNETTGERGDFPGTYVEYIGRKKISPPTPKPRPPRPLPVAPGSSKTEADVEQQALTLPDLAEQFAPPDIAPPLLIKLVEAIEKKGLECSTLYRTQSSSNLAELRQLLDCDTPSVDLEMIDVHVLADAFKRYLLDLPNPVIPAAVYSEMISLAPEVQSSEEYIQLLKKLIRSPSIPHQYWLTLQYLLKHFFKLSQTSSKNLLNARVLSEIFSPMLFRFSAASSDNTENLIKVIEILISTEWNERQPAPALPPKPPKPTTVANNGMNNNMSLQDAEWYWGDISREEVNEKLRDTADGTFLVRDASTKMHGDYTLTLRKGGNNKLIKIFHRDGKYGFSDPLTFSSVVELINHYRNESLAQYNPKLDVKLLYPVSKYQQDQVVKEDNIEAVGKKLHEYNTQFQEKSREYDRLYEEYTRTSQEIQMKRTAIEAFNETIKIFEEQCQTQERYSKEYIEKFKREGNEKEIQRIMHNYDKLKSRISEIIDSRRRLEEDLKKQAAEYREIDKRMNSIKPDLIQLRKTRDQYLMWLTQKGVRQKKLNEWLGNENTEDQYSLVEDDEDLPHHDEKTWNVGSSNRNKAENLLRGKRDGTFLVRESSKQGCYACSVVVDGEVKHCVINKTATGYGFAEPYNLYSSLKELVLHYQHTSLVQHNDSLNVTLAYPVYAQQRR
Experimental: Enzymatic activity of the class I PI3K isoforms in the presence of the compounds of Table 1 above was measured using a time-resolved fluorescence resonance energy transfer (TR-FRET) assay.
The TR-FRET assay can monitor formation of the product 3,4,5-inositol triphosphate molecule (PIP3) as it competed with fluorescently labeled PIP3 for binding to the GRP-1 pleckstrin homology domain protein. An increase in […] product results in a decrease in TR-FRET signal as the labeled fluorophore is displaced from the GRP-1 protein binding site.
Control compound, PI-103, was tested in 10-dose IC50 with 3-fold serial dilution starting at 10 μm.
Data are normalized based on negative (DMSO) control. The alpha, beta, delta, and gamma IC50 values were calculated from the fit of the dose-response curves to a four parameter equation. IC50 are reported in units of nM.
IC50 values were obtained for all PI3K isoforms (α, β, δ, and γ), and Table 2 summarizes the IC50 data collected for PI3Kδ in this Example.

[2] = Hepatocyte stability (parent drug disappearance in cryopreserved hepatocytes); type: in vitro ADME, human; conditions: for half-life at 1 μM: human, cryopreserved hepatocytes
Experimental: The hepatocyte assay was used to evaluate the metabolic stability of test articles (TA) following incubation in cryopreserved hepatocytes by monitoring parent drug disappearance via […]. The TA with 1% final DMSO concentration was incubated with 0.5 million hepatocytes/ml at 1 μM substrate in duplicate. The incubation was carried out at 37° C. with 5% CO2 and saturating humidity. Samples were taken at 0, 1, 2, and 3 hours to monitor the disappearance of TA and a half-life (t ½) was determined. Table 2 below summarizes the t½ values (e.g. t ½) collected from this Example.

[3] = tested on: EHEB; experiment: Cytotoxicity assay (CTG, 72 h) in EHEB; type: cell-based; conditions: cell viability
Experimental: (§1) Cytotoxicity assay of compound 2 of Table 1 in selected cell lines
(§2) Day 0: cell seeding for all cell lines with the density of 10000 cells/80 μL/well.
(§3) Day 1, drug treatment: Prepare 3-fold serial dilutions of compound stock solutions with growth medium. Dispense 20 μL (5×) drμg solution in each well (duplicates for each concentration), the final DMSO concentration of each well treated with test compound and corresponding vehicle control is 0.1%. Incubate the plate for 72 h in specified incubator.
(§4) Day 4, plate reading: Thaw CTG solution and equilibrate to room temperature, add 100 μL of CTG per well, mix the contents for 2 min on the plate shaker, incubate for 10 min before recording the luminescence signal using Envision.

[4] = tested on: JVM-2; experiment: Cytotoxicity assay (CTG, 72 h) in JVM-2; type: cell-based
Experimental: as §1, §2, §3, §4

[5] = tested on: SU-DHL-4; experiment: Cytotoxicity assay (CTG, 72 h) in SU-DHL-4; type: cell-based
Experimental: as §1, §2, §3, §4

[6] = tested on: SU-DHL-5; experiment: Cytotoxicity assay (CTG, 72 h) in SU-DHL-5; type: cell-based
Experimental: as §1, §2, §3, §4

[7] = tested on: SU-DHL-6; experiment: Cytotoxicity assay (CTG, 72 h) in SU-DHL-6; type: cell-based
Experimental: as §1, §2, §3, §4

[8] = cited from earlier work
[9] = cited from earlier work; remark: listed apart in the source
[10] = PK profile after iv and PO dosing in rats; type: in vivo, SD rats
Experimental: Compound 2 was dosed by both iv and PO in the rats.

[11] = 1 μM substrate, 0.5 million hepatocytes/ml, 37° C., read-out: hepatocyte T1/2 (converted)
[12] = human hepatocytes, Table 3 comparison, read-out: T ½
[13] = Homo sapiens, JVM-2, cell viability
[14] = Homo sapiens, SU-DHL-4, cell viability
[15] = Homo sapiens, SU-DHL-5, cell viability
[16] = Homo sapiens, SU-DHL-6, cell viability
[17] = IV, data from idelalisib NDA filing
[18] = oral, data from idelalisib NDA filing
[19] = Sprague-Dawley, rat, in vivo, 1.32 mg/kg, iv, rats
[20] = Sprague-Dawley, rat, in vivo, po, 10 mg/kg, SD rats

IC50 [1]: 0.14 nM | half-life at 1 μM [2, 11]: 20 h | half-life at 1 μM [2, 12]: > 12 h
SMILES: C[C@H](Nc1nc(N)nc(N)c1C#N)c1cc2ccc(F)cc2nc1-c1cccc(F)c1 [Compound 5, (S)-2,4-diamino-6-{1-[7-fluoro-2-(3-fluoro-phenyl)-quinolin-3-yl]-ethylamino}-pyrimidine-5-carbonitrile]

SMILES: CC[C@H](Nc1ncnc2[nH]cnc12)c1nc2cccc(F)c2c(=O)n1-c1ccccc1 [Idelalisib, idelalisib]
IC50 [3]: 0.506 µM | IC50 [4, 13]: 1.43 µM | IC50 [5, 14]: 0.198 µM | IC50 [6, 15]: 1.68 µM | IC50 [7, 16]: 0.13 µM | AUCinf [8, 17]: 1151 ± 407 ng·h/mL | Cl [8, 17]: 478 ± 19 mL/min/kg | Cmax [8, 17]: 1437 ± 220 ng/mL | Tmax [8, 17]: 0.08 h | VSS [8, 17]: 2.49 L/kg | AUCinf [8, 18]: 422 ± 67 ng·h/mL | Cmax [8, 18]: 129 ± 49 ng/mL | Tmax [8, 18]: 3.00 h | t1/2 ([8]; rat, in vivo, iv): 1.89 h | Fatal and/or serious hepatotoxicity, % of patients ([9]; combination trials): 11% | Fatal and/or serious hepatotoxicity, % of patients ([9]; monotherapy): 18%

IC50 [1]: 0.086 nM | half-life at 1 μM [2, 11]: 53 h | half-life at 1 μM [2, 12]: > 48 h | AUC(0-inf) [10, 19]: 4550 ng·h/mL | Cmax [10, 19]: 1090 ng/mL | Tmax [10, 19]: 0.08 h | clearance [10, 19]: 4.6 mL/min/kg | half-life [10, 19]: 3.55 h | Vd ([10]; Sprague-Dawley, rat, in vivo, 1.32 mg/kg, iv, rats, read-out: VSS): 1.12 L/kg | AUC(0-inf) [10, 20]: 29500 ng·h/mL | Cmax [10, 20]: 3170 ng/mL | Tmax [10, 20]: 2 h | bioavailability [10, 20]: 80% | half-life [10, 20]: 3.12 h | AUCinf/Dose ([10]; iv, rats): 3448 | Cmax/Dose ([10]; iv, rats): 828 | Oral exposure corrected with dose (AUCinf/dose), fold higher than that of idelalisib ([10]; oral dose 10 mg/kg, SD rats, versus idelalisib): 20 fold | AUCinf/Dose ([10]; po, 10 mg/kg, SD rats): 2949 | Cl ([10]; po, 10 mg/kg, SD rats): 4.6 mL/min/kg | Cmax/Dose ([10]; po, 10 mg/kg, SD rats): 317
SMILES: C[C@H](Nc1nc(N)nc(N)c1C#N)c1cc2ccc(F)cc2nc1-c1ccccn1 [Compound 2, (S)-2,4-Diamino-6-[1-(7-fluoro-2-pyridin-2-yl-quinolin-3-yl)-ethylamino]-pyrimidine-5-carbonitrile]
IC50 [3]: 0.216 µM | IC50 [4, 13]: 0.931 µM | IC50 [5, 14]: 0.088 µM | IC50 [6, 15]: 0.493 µM | IC50 [7, 16]: 0.035 µM

IC50 [1]: 0.24 nM | half-life at 1 μM [2, 11]: 17 h
SMILES: C[C@H](Nc1nc(N)nc(N)c1C#N)c1cc2ccc(F)cc2nc1-c1cc(F)cc(F)c1 [Compound 3, (S)-2,4-Diamino-6-{1-[2-(3,5-difluoro-phenyl)-7-fluoro-quinolin-3-yl]-ethylamino}-pyrimidine-5-carbonitrile]

half-life at 1 μM [2, 11]: 0.88 h | half-life at 1 μM [2, 12]: < 1 h
SMILES: C[C@H](Nc1ncnc(N)c1C#N)c1cc2ccc(F)cc2nc1-c1ccccn1 [H, reference compound]

IC50 [1]: 0.27 nM | half-life at 1 μM [2, 11]: 6 h | improved stability in human hepatocytes (longer half-life), fold ([2]; versus compound E): 1.3 ×
SMILES: C[C@H](Nc1nc(N)nc(N)c1C#N)c1cc2ccc(F)cc2nc1-c1ccccc1S(C)(=O)=O [Compound 4, (S)-2,4-Diamino-6-{1-[7-fluoro-2-(2-methanesulfonyl-phenyl)-quinolin-3-yl]-ethylamino}-pyrimidine-5-carbonitrile]

half-life at 1 μM [2, 11]: 5.9 h | half-life at 1 μM [2, 12]: < 6 h
SMILES: C[C@H](Nc1ncnc(N)c1C#N)c1cc2cccc(F)c2nc1-c1ccccc1S(C)(=O)=O [F, reference compound]

half-life at 1 μM [2, 11]: 1.2 h | half-life at 1 μM [2, 12]: < 1.5 h
SMILES: C[C@H](Nc1ncnc(N)c1C#N)c1cc2ccc(F)cc2nc1-c1cccc(F)c1 [G, reference compound]

half-life at 1 μM [2, 11]: 10 h
SMILES: C[C@H](Nc1ncnc(N)c1C#N)c1cc2ccc(F)cc2nc1-c1ccccc1 [D, reference compound]

IC50 [1]: 2.1 nM | half-life at 1 μM [2, 11]: 59 h | half-life at 1 μM [2, 12]: > 48 h
SMILES: C[C@H](Nc1nc(N)nc(N)c1C#N)c1cc2cccc(F)c2nc1-c1ccccc1S(C)(=O)=O [Compound 7, (S)-2,4-Diamino-6-{1-[8-fluoro-2-(2-methanesulfonyl-phenyl)-quinolin-3-yl]-ethylamino}-pyrimidine-5-carbonitrile]

half-life at 1 μM [2, 11]: 9 h
SMILES: C[C@H](Nc1nc(N)nc(N)c1C#N)c1cc2cccc(F)c2nc1-c1ccccn1 [Compound 6, (S)-2,4-Diamino-6-[1-(8-fluoro-2-pyridin-2-yl-quinolin-3-yl)-ethylamino]-pyrimidine-5-carbonitrile]

SMILES: N.N.[Cl][Pt][Cl] [Cisplatin]
IC50 [3]: 2.59 µM | IC50 ([4]; cell viability): 0.749 µM | IC50 ([5]; cell viability): 0.507 µM | IC50 ([6]; cell viability): 0.28 µM | IC50 ([7]; cell viability): 5.61 µM

IC50 [1]: 0.043 nM | half-life at 1 μM [2, 11]: 27 h | improved stability in human hepatocytes (longer half-life), fold ([2]; versus compound D): 2.7 ×
SMILES: C[C@H](Nc1nc(N)nc(N)c1C#N)c1cc2ccc(F)cc2nc1-c1ccccc1 [Compound 1, (S)-2,4-diamino-6-[1-(7-fluoro-2-phenyl-quinolin-3-yl)-ethylamino]-pyrimidine-5-carbonitrile]

IC50 [1]: 0.97 nM
SMILES: C[C@H](Nc1nc(N)nc(N)c1C#N)c1cc2cccc(Cl)c2nc1-c1ccccn1 [Compound 8, (S)-2,4-Diamino-6-[1-(8-chloro-2-pyridin-2-yl-quinolin-3-yl)-ethylamino]-pyrimidine-5-carbonitrile]

half-life at 1 μM [2, 11]: 4.8 h
SMILES: C[C@H](Nc1ncnc(N)c1C#N)c1cc2ccc(F)cc2nc1-c1ccccc1S(C)(=O)=O [Compound E, reference compound]
